Among the data in article PMC7407272, “Induction of Lysosome Membrane Permeabilization as a Therapeutic Strategy to Target Pancreatic Cancer Stem Cells” (Cancers, 2020) are remaining binding values, retold here.

Common to all, as to experiment: KINOMEscan
Common to all, as to format: binding
What all share (details): read-out: % Ctrl

One assay deals with T1, RET(M918T) (Homo sapiens, UniProt P07949, M918T).
T1 construct: purchased DiscoveRx KINOMEscan

Another assay concerns the target T2, SGK (Homo sapiens, UniProt O00141).
T2 construct: purchased DiscoveRx KINOMEscan

In another assay the target is T3, SRPK1 (Homo sapiens, UniProt Q96SB4).
T3 construct: purchased DiscoveRx KINOMEscan

The target of another assay is T4, ADCK4 (Homo sapiens, UniProt Q96D53).
T4 construct: purchased DiscoveRx KINOMEscan

A further assay concerns the target T5, EPHA6 (Homo sapiens, UniProt Q9UF33).
T5 construct: purchased DiscoveRx KINOMEscan

The target of a further assay is T6, ABL1(H396P)-nonP (Homo sapiens, UniProt P00519, H396P).
T6 construct: purchased DiscoveRx KINOMEscan

For a further assay, the target named is T7, VEGFR2 (Homo sapiens, UniProt P35968).
T7 construct: purchased DiscoveRx KINOMEscan

For the next assay, the target named is T8, MYLK4 (Homo sapiens, UniProt Q86YV6).
T8 construct: purchased DiscoveRx KINOMEscan

A further assay addresses T9, PCTK2 (Homo sapiens, UniProt Q00537).
T9 construct: purchased DiscoveRx KINOMEscan

A further assay addresses T10, PRKCI (Homo sapiens, UniProt P41743).
T10 construct: purchased DiscoveRx KINOMEscan

Another assay has as its target T11, TEC (Homo sapiens, UniProt P42680).
T11 construct: purchased DiscoveRx KINOMEscan

The next assay concerns the target T12, MAP4K5 (Homo sapiens, UniProt Q9Y4K4).
T12 construct: purchased DiscoveRx KINOMEscan

The next assay deals with T13, MAPKAPK2 (Homo sapiens, UniProt P49137).
T13 construct: purchased DiscoveRx KINOMEscan

The target of another assay is T14, ITK (Homo sapiens, UniProt Q08881).
T14 construct: purchased DiscoveRx KINOMEscan

The structures appear in SMILES notation.

T9 sequence (Q00537 whole entry): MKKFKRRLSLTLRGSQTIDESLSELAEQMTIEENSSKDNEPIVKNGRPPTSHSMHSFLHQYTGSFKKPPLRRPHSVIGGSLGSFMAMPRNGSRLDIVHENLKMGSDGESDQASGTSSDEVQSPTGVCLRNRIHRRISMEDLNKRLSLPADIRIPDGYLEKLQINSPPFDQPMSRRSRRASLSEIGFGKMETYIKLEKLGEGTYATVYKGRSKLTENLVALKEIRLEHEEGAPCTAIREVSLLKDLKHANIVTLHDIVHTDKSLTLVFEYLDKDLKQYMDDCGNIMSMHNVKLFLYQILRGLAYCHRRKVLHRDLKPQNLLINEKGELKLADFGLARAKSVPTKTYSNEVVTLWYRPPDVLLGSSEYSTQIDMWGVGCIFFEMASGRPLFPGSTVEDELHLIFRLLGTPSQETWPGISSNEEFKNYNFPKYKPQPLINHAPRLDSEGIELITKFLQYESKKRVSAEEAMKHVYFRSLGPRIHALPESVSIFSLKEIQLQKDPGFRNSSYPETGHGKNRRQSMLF
T5 sequence (Q9UF33 23-1036): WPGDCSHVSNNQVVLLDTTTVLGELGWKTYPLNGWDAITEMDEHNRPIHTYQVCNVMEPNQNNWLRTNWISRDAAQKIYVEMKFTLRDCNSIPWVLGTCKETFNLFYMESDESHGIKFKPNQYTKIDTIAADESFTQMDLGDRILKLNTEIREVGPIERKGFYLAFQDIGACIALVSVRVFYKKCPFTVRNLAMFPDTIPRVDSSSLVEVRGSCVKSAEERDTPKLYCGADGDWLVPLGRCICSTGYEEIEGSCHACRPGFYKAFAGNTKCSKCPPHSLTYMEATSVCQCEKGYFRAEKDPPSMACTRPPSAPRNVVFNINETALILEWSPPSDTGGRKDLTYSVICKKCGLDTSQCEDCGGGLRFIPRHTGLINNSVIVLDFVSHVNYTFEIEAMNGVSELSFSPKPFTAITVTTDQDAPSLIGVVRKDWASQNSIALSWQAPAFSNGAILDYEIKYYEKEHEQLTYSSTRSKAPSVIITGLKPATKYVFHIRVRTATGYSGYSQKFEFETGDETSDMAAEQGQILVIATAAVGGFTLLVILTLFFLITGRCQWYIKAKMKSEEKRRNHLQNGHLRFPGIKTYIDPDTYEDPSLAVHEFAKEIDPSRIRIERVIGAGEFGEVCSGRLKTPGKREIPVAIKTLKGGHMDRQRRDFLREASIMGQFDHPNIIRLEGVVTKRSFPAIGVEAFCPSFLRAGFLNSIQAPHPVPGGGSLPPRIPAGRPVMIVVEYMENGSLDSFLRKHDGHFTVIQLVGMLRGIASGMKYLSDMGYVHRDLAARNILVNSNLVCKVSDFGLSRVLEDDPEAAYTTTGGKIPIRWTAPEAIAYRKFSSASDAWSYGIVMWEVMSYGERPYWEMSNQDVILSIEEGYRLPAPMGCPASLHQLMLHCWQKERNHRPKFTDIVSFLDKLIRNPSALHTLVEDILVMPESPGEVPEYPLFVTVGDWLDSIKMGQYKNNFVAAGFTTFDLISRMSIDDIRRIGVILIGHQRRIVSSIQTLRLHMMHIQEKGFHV
T14 sequence (Q08881 whole entry): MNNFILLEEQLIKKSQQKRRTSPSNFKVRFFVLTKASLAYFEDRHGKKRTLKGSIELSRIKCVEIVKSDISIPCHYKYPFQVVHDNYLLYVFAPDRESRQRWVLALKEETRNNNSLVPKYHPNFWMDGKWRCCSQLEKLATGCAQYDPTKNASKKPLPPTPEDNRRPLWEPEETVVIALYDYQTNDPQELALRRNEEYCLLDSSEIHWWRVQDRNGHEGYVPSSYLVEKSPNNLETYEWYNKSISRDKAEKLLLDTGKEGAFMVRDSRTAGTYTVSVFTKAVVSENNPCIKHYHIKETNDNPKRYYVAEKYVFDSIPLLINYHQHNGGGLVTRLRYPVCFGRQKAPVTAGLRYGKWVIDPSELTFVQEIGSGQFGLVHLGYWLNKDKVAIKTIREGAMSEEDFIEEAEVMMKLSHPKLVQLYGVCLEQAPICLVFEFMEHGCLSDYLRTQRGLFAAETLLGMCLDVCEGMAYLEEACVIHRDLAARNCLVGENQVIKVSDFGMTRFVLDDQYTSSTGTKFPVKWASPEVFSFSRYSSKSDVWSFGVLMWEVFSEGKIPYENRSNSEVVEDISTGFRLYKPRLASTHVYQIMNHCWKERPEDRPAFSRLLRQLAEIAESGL
T13 sequence (P49137 whole entry): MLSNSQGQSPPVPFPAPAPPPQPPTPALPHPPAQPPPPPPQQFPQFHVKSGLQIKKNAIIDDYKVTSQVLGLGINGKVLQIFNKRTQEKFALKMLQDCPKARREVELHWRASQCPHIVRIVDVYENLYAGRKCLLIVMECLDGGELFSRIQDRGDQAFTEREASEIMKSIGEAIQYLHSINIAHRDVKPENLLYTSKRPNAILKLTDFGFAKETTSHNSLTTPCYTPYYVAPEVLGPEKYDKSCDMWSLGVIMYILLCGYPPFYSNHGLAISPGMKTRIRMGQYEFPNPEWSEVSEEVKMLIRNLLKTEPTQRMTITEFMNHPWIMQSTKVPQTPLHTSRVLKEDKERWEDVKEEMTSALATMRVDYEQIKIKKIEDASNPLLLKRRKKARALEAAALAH
T7 sequence (P35968 20-1356): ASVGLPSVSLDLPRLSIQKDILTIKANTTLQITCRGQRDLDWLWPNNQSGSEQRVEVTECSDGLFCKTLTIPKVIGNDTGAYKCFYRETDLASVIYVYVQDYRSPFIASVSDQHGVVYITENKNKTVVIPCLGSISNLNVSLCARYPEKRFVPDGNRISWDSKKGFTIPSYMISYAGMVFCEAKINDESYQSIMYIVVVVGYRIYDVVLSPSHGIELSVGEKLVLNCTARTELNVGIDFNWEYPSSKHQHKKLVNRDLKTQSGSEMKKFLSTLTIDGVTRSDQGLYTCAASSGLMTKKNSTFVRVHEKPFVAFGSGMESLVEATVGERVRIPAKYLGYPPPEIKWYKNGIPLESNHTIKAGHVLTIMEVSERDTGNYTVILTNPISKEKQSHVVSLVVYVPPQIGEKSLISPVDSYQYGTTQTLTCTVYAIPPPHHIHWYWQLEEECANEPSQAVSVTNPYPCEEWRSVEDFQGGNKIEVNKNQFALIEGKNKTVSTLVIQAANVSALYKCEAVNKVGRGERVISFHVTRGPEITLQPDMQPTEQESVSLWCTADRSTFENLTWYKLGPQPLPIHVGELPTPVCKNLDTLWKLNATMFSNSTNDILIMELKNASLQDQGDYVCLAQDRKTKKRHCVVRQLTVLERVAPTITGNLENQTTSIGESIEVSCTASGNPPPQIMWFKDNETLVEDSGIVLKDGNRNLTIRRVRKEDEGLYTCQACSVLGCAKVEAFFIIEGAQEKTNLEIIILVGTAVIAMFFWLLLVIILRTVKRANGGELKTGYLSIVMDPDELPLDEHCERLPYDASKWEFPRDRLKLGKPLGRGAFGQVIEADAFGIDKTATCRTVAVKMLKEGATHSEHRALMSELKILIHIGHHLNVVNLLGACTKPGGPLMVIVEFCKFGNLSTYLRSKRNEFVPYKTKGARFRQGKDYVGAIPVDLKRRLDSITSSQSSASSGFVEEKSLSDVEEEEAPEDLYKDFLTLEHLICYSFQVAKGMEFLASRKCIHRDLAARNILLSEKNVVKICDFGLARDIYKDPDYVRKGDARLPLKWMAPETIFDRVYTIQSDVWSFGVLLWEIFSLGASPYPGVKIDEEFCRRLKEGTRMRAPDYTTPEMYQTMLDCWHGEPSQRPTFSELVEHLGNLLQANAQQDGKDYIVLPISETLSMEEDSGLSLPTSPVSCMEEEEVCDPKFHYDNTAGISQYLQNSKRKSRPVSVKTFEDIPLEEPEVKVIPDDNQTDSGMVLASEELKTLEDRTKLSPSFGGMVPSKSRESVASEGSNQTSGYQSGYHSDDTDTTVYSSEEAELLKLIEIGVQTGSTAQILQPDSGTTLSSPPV
T2 sequence (O00141 whole entry): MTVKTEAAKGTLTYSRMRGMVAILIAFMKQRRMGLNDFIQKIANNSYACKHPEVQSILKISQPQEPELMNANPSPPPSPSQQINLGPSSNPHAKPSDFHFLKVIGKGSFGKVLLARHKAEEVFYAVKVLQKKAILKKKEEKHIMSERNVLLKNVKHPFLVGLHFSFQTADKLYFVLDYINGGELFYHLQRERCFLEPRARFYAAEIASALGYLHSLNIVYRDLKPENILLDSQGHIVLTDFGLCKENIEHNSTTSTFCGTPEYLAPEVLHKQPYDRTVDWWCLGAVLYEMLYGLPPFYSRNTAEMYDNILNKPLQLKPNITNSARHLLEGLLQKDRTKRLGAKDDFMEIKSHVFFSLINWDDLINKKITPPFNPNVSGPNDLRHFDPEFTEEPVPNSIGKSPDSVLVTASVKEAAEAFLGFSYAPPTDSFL
T8 sequence (Q86YV6 whole entry): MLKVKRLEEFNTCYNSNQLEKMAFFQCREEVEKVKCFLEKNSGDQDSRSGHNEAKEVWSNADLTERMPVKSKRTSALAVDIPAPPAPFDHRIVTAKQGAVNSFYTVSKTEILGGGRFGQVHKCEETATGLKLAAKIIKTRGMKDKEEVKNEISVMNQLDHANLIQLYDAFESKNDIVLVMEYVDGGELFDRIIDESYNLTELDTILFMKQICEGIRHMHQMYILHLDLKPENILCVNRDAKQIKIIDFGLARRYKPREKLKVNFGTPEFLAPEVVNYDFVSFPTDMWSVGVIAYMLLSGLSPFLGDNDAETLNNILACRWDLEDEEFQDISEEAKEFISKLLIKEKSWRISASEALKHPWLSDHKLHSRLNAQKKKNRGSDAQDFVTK

`CN1CCC(CNc2ccc3ncc(C(=O)Nc4cccc(OC(F)(F)F)c4)n3n2)CC1` [Cpd 2]: the remaining binding at 1 µM is 100% on RET(M918T); 85% on SGK; 95% on SRPK1; 99% on ADCK4; 86% on EPHA6; 93% at ABL1(H396P)-nonP. In addition, the remaining binding at 1 µM on VEGFR2 came out at 100%; on MYLK4 it was 100%; at PCTK2, 100%; on PRKCI, 85%; on TEC, 96%; at MAP4K5, 92%. Further, the values for the remaining binding at 1 µM on MAPKAPK2 and at ITK were 94% and 95%, respectively.
